Data taken from paper PMC9822769, “The Strange Case: The Unsymmetric Cisplatin-Based Pt(IV) Prodrug [Pt(CH3COO)Cl2(NH3)2(OH)] Exhibits Higher Cytotoxic Activity with respect to Its Symmetric Congeners due to Carrier-Mediated Cellular Uptake” (Bioinorganic Chemistry and Applications, 2022).

Legend:
A2780 cells = experiment: Cellular Pt accumulation (accumulation ratio, ICP-MS) in A2780 cells; assay type: cell-based, human; settings: A2780, 4 h CT, 10 μM
Experimental: A2780 and A2780cisR cells were seeded in 10 mm Petri dishes and challenged with complexes under investigation (10 μM) in a complete medium for 4 h. At the end of the exposure, cells were washed three times with PBS, detached from Petri dishes using 0.05% trypsin 1x + 2% EDTA (HyClone, Thermo Fisher), and harvested in a completely fresh medium. An automatic cell counting device (Countess®, Life Technologies) was used to measure the number and mean diameter of each cell necessary to calculate the mean cellular (spherical) volume.
For the analysis of Pt accumulation, cells were transferred to a borosilicate glass tube and centrifuged at 1100 rpm for 5 min at room temperature. The supernatant was carefully removed by aspiration, while approximately, 200 μL of the supernatant was left to limit cell loss. Cellular pellets were stored at −80°C until mineralization.
The determination of the platinum content was performed by ICP-MS (Thermo Optek X Series 2). Mineralization was carried out by adding 70% w/w HNO3 to each sample (after defrosting), followed by incubation for 1 h at 60°C in an ultrasonic bath. Before the ICP-MS measurement, HNO3 was diluted to a final concentration of 1%. The instrument settings were optimized to produce the highest platinum sensitivity, and the most abundant isotopes of Pt and In (used as an internal standard) were quantified at m/z 195 and 115, respectively.
The quantity of Pt found in cells and normalized on cell number (cellular Pt accumulation) was expressed as ng of Pt per 10^6 cells. The mean cellular volume, calculated from the actual mean cell diameter measured for each sample (about 12 μm), was used to obtain the volume of 10^6 cells and, finally, the intracellular Pt concentration. At treatment time zero, 100 μL of the medium was taken from each sample to verify the extracellular Pt concentration. The ratio between intracellular and the actual extracellular concentrations is defined as the accumulation ratio, AR [70]. The Pt content in the control experiment, which characterizes any possible Pt contamination during the overall process, was statistically insignificant with respect to the cellular Pt accumulated during treatment, even in the case of A2780cisR.
Experiments with the inhibitors were carried out at 37°C as follows: (i) NaN3 + 2-deoxy-D-glucose (2DG): preincubation for 30 min in PBS with 25 mM NaN3 and 25 mM 2DG, followed by a 10 μM CT with the Pt compounds in Earle's Balanced Salt Solution (EBSS) for 1 h; (ii) cimetidine (CMT): coincubation with 1.5 mM CMT and 10 μM Pt compounds in EBSS for 1 h; (iii) 1-methyl-4-phenylpyridin-1-ium (MPP^+): coincubation with 2.0 mM MPP^+ and 10 μM Pt compounds in EBSS for 1 h; (iv) cytochalasin D (CTD): preincubation for 30 min in EBSS with 10 μM CTD, followed by a 10 μM CT with the Pt compounds in EBSS for 1 h; (v) O-benzylserine (BS): coincubation with 1.0 mM BS and 10 μM Pt compounds in EBSS for 4 h; (vi) ouabain (OUA): preincubation for 1 h in EBSS with 1 mM OUA, followed by a 10 μM CT with the Pt compounds in EBSS for 4 h; (vii) tetraethylammonium chloride (TEA): preincubation for 1 h with 2.0 mM TEA followed by 10 μM Pt compounds in EBSS for 4 h. In the experiments at low temperature, A2780 cells were preincubated for 2 h at 4°C, followed by CT with each Pt compound (10 μM) for 4 h. In all cases, at the end of the CT, the cells were manipulated as described in the previous paragraphs.

NT2-D1 = experiment: Resazurin reduction cell viability assay, NT2-D1; assay type: cell-based, human; settings: 72 h of treatment; mean ± sd
Experimental: The compounds under investigation were tested on a panel of commercial human cancer cell lines: ovarian endometrioid adenocarcinoma A2780 (ICLC HTL98008), its cisplatin-resistant variant A2780cisR (ECACC 93112517), colon carcinoma HCT 116 (ECACC 91091005), breast invasive ductal carcinoma MCF7 (ECACC 86012803), embryonal carcinoma NTERA-2 clone D1 (also known as NT2/D1, ICLC HTL97025), and lung adenocarcinoma A549 (ICLC HTL03001). Furthermore, a cell line derived from the pleural effusion of a patient with untreated malignant pleural mesothelioma (MPM) was added to the panel, namely, MM98 (sarcomatoid phenotype). Commercial cells were purchased from the European Collection of Authenticated Cell Cultures (ECACC, UK) or the Interlab Cell Line Collection (ICLC, Genoa, Italy), while the MM98 cell line was obtained from the Pathology Unit of the National Hospital of Alessandria (Italy).
The following media were used to grow the cells: RPMI 1640 (for A2780, A2780cisR, NT2/D1, and A549 cells), DMEM (for MCF7 cells), DMEM supplemented with nonessential amino acids (for MM98 cells), and McCoy's 5A (for HCT 116 cells). All media contained L-glutamine (2 mM) and were added with penicillin (100 IU·mL^−1), streptomycin (100 mg·L^−1), and 10% heat inactivated FBS. To maintain resistance in A2780cisR cells, cisplatin (1 μM) was added to the medium every two passages.
Continuous treatments (CT) were carried out at 37°C in a humidified chamber with 5% CO2. Cisplatin was dissolved in a 0.9% w/v NaCl aqueous solution and brought to pH = 3 with HCl (final stock concentration 1 mM). The Pt(IV) Complexes 1–3 were dissolved in milliQ water (final stock concentration 5 mM) and stored at −20°C. The stock concentration was confirmed with inductively coupled plasma-mass spectrometry (ICP-MS) measurements. The mother solutions were diluted in a complete medium to the required concentration.
To assess the growth inhibition of the compounds under investigation, a cell viability test (i.e., the resazurin reduction assay) was used. […] At the end of the treatment (72 h), viability was evaluated with 100 μg·mL^−1 resazurin (Acros Chemicals, France) in a fresh medium for 1 h at 37°C, and the amount of the reduced product, resorufin, was measured by fluorescence (excitation λ = 535 nm, emission λ = 595 nm) with a Tecan Infinite F200Pro plate reader (Tecan, Austria). In each experiment, cells were challenged with drug candidates at different concentrations, and the final data were calculated from at least three replicates of the same experiment performed in triplicate. The fluorescence of 8 wells containing a medium without cells was used as a blank. Fluorescence data were normalized to 100% cell viability for nontreated cells. […]

SMILES	ratio between AR 37°C and AR 4°C (A2780 cells)	IC50 (NT2-D1) [nM]	accumulation ratio (AR) (A2780 cells; 37°C)
CC(=O)[O][Pt]([NH2])([NH2])([Cl])([Cl])[O]C(C)=O [Complex 3, (OC-6-33)-diamminedichloridodiacetatoplatinum(IV)]	3.6	4300 ± 1130	
CC(=O)[O][Pt]([OH])([Cl])[Cl].N.N [Complex 2, (OC-6-44)-acetatodiamminedichloridohydroxidoplatinum(IV)]	increases hugely	210 ± 80	higher AR at 4 h than 1 and 3, even higher than that of cisplatin
N.N.[OH][Pt]([OH])([Cl])[Cl] [Complex 1, (OC-6-33)-diamminedichloridodihydroxidoplatinum(IV)]	3.2	1440 ± 160	
N.N.[Cl][Pt][Cl] [Cisplatin, (SP-4-2)-diamminedichloridoplatinum(II)]	increases hugely	100 ± 40	
